One experiment addresses T1, p75/LSS (Mus musculus, UniProt Q8BLN5).
T1 construct: endogenous in cells; host or cells: Mut6 murine GBM stem-like cells
T1 sequence (Q8BLN5 1-733): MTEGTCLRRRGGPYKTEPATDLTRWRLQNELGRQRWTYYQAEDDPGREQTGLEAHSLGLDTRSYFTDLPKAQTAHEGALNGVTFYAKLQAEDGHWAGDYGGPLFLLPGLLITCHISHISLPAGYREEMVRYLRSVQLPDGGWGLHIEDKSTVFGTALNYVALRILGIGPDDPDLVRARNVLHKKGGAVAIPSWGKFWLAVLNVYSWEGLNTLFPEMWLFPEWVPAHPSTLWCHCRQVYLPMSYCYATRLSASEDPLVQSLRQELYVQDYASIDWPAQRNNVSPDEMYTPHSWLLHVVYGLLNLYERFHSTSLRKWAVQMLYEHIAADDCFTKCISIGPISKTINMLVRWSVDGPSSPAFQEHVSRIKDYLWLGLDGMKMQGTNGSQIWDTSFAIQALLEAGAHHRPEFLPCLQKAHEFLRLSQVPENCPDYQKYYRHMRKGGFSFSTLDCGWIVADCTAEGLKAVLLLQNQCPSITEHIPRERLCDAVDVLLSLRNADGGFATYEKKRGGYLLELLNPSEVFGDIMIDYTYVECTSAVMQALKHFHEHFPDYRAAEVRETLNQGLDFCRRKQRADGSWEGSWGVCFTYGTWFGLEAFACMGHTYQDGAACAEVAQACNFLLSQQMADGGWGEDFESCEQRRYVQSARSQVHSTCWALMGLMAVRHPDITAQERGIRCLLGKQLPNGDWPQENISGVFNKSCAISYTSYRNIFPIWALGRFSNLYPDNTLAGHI
As to the kind of experiment: p75 probe-displacement assay with MM0299-probe in Mut6 cells. It is filed as binding. Particulars: read-out: p75 binding EC50 (concentration of competitor required to displace 50% of probe-bound signal). On the procedure:
We sought to understand the mechanism of action (MoA) of MM0299 by identifying which proteins it binds to in Mut6 cells. […] Following ultraviolet (UV) light exposure, photoreactive diazirine groups form reactive carbenes that have the potential to react with nearby amino acid residues resulting in the covalent addition of the compound to a bound protein. We incubated Mut6 cells with increasing concentrations of probe 2 either with or without UV treatment (306 nm), and the resulting lysates were reacted with a fluorescent azide in a copper(I)-catalyzed azide-alkyne cycloaddition (commonly referred to as “click” chemistry). […] Several protein bands increased in fluorescent intensity in a dose-dependent manner exclusively in the UV condition, the most prominent of which migrated at approximately 75 kDa (p75).
To determine whether binding to any of the observed bands was related to toxicity, we performed a series of probe-displacement assays by co-incubating cells with a fixed concentration of probe 2 and increasing concentrations of competitor 1. […] Even though probe 2 bound to multiple proteins, we observed that only p75 fluorescence decreased in a dose-dependent manner. […] In parallel, we determined the anti-proliferative activity for each derivative in a dose-dependent manner to determine its IC50, yielding a structure-activity relationship.

In a further experiment the test system is UTSW63. As to the kind of experiment: rescue of toxicity by NB-598 in UTSW63. It is filed as cell-based, human. Particulars: lower doses of NB-598. On the procedure: Like Mut6 cells, both UTSW63 and UTSW71 grow as neurospheres in serum-free medium (data not shown). […] MM0299 toxicity in the two human GSC lines is completely rescued by exogenous MCD-conjugated lanosterol or cholesterol. A naturally occurring mechanism for the import of extracellular cholesterol is the uptake of circulating low-density lipoprotein (LDL). Therefore, we investigated whether human LDL could rescue MM0299 toxicity in human GBM cells. Addition of 20 μg/ml human LDL completely rescued the toxicity of 1 in both UTSW63 and UTSW71 cells. To investigate the role of the shunt pathway in MM0299 toxicity, we again turned to the tool compound NB-598.

In another experiment the target is T2, recombinant human LSS (Homo sapiens, UniProt P48449).
T2 construct: made in house; host or cells: E. coli
T2 sequence (P48449 1-732): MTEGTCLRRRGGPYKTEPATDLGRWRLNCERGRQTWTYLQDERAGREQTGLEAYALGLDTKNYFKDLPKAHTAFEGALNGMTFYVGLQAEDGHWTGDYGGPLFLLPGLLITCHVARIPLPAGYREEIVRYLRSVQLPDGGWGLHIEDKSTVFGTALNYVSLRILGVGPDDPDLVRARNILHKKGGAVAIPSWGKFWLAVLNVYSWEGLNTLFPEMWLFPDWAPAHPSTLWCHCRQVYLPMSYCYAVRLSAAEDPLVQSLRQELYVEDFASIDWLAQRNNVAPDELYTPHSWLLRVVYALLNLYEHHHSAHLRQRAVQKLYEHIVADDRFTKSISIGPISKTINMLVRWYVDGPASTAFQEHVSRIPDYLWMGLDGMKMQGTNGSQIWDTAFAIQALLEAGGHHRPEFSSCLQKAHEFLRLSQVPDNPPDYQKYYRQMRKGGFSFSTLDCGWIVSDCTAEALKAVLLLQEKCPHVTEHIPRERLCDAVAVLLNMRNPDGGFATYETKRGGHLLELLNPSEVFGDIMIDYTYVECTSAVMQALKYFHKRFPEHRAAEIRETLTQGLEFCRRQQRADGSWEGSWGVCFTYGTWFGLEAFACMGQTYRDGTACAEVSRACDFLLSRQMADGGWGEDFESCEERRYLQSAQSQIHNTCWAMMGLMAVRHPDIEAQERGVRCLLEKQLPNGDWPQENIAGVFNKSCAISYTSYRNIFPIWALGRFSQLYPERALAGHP
As to the kind of experiment: cell-free in vitro reaction with recombinant LSS. It is filed as biochemical. On the procedure: Recombinant LSS purified from E. coli converted OS to lanosterol in a time- and dose-dependent manner. Of note, lanosterol production was saturated over time, which may be the consequence of substrate depletion or product inhibition. Regardless, we evaluated enzymatic activity over 30 minutes with 64 μM of substrate, conditions under which the reaction remained linear. […] Similar experiments with three different analogs (3, 6, 14) support the notion that inhibition of Lss enzyme activity correlates with anti-GBM activity in Mut6 cells. It was notable that the concentration of compound required to inhibit LSS activity in vitro is substantially higher than the concentration required to block cell growth. One possible explanation for this difference is that the conditions of the in vitro reaction, which includes non-ionic detergents in an aqueous buffer, influence substrate or compound solubility or binding.
An outstanding question regarding the shunt pathway is how LSS can still convert DOS into EPL in the presence of high concentrations of an inhibitor. […] To address this question, we assessed the efficacy of in vitro conversion of DOS to EPL by LSS. […] Therefore, the conversion of DOS to EPL by LSS in the presence of MM0299 is not simply explained by an increased affinity LSS for DOS. […]

SMILES strings stand for the structures. Where two headings read alike, the source gives them in different places.

Regarding `C=CCN(C)CCCCCCOc1ccc(C(=O)c2ccc(Br)cc2)c(F)c1` [Ro 48-8071, reference compound], the EC50 on p75/LSS is 2.48 nM.
In the case of `COc1ccc(C(=O)COc2ccc(N3C(=O)[C@@H]4[C@@H]5C=C[C@@H]([C@H]6C[C@@H]56)[C@@H]4C3=O)cc2)cc1` [compound 1, (3aR,4R,4aR,5aS,6S,6aS)-2-(4-(2-(4-Methoxyphenyl)-2-oxoethoxy)phenyl)-4,4a,5,5a,6,6a-hexahydro-4,6-ethenocyclopropa[f]isoindole-1,3(2H,3aH)-dione], in the experiment on UTSW63, the “increase in IC50 with NB-598, UTSW63” value is given as 15.0 fold. Further, the half-inhibitory concentration (IC50) (commonly the concentration that gives 50% inhibition) at recombinant human LSS (30 minutes, 64 μM substrate, read-out: IC50, LSS in vitro activity (OS to lanosterol)) is 2220 nM; on recombinant human LSS (in vitro, read-out: IC50, DOS conversion to EPL by LSS) it was 1600 nM.

The values above are taken from patent US20250034091A1, “Small molecule inhibitors of lanosterol synthase” (Board of Regents, The University of Texas System, priority 2022, published 2025).
